{
  "source": "patent US10537518B2",
  "about": "“Homogenization system of drugs into biodegradable polymer: smart polymer system” (Juvic Inc., priority 2015, dated 2020)",
  "key": {"[1]": {"test": "Particle size analysis with particle size analyzer", "assay_type": "physicochemical", "conditions": "for size of commercially available crystalline drug: crude powder, before homogenization", "experimental": "Particle size analysis was performed using a particle size analyzer (Schimdzu, Japan). […] To uniformly mix drugs having a polymer combination and a colloid formulation, the drugs were homogenized at an optimum rotary speed of 21,000 rpm for 5 minutes using a rotor homogenizer (Homogenizer Power Gen 500, Fisher Scientific, USA). Ultrasonication was performed at […] using an ultrasonicator (Sonic vibra cell, USA). In the size analysis, distilled water was used as a solvent, and an average of values obtained reading each of samples three times was calculated. The particle size reading was performed at an interval of 30 minutes due to the tendency of the drug to be crystallized when the drug is exposed to distilled water for a long period of time."}, "[2]": {"test": "Colloid morphology and size by scanning electron microscope (SEM)", "assay_type": "physicochemical", "conditions": "colloids of HA and PVP 1:1 with drug", "experimental": "(§1) The morphology of a colloidal structure of a polymer was analyzed using a scanning electron microscope (SEM; equipped with Type JEOL (JSM-7001F) energy-dispersive X-ray (EDX) Oxford ISIS 300 micro-analysis system). For this experiment, platinum coating was performed at 10 mA to protect colloids from high-energy beams. Also, a decrease in the size of the colloids was confirmed using a transmission electron microscope (TEM), and this confirmation was performed on a very thin sample formed on a copper grid as an upper cover provided in the grid. A TEM micrograph was obtained at 120 kV using a JEM 2010 (HC) (JEOL Ltd, USA) microscope. The amorphous form of the drug in the colloidal structure was confirmed using a random XRD analysis on the sample, and continuously scanned at intervals of 3-80° 2θ using an Ultima IV diffractometer (Rigaku Corporation, Japan) with Bragg-Brentano geometry (2θ/θ) having 40 kV/30 mA X-ray and K-beta filter radiations."}, "[3]": {"test": "Colloid size by transmission electron microscope (TEM)", "assay_type": "physicochemical", "conditions": "colloids of HA and PVP 1:1 with drug", "experimental": "as §1"}, "[4]": {"test": "In vitro drug release by Franz cell diffusion", "assay_type": "in vitro ADME", "conditions": "pig skin; for release of drug from SPS microneedles: n=3; for time to diffusion after application: from SPS microneedles", "experimental": "In vitro analysis was performed using Franz cell diffusion. Microneedles containing 0.1% NR and 0.75% CAP were applied onto the skin of a dead pig, and put on donor moieties of Franz cells. A receptor moiety was composed of PBS including 20% ethanol. A sample was analyzed at intervals of 0, 0.5, 1, 2, 3, 4, 5, 6, 12, and 24 hours. The quantification of NR and CAP was performed at 559 nm and 280 nm using UV-Vis spectroscopy (Jasco, V650) and Ultra Performance Liquid Chromatography (UPLC) (Acquity UPLC, Waters), respectively. The amounts of NR and CAP in a microneedle patch were determined by dissolving the patch in PBS including 10% ethyl acetate and 20% ethanol, respectively. Thereafter, solid-phase extraction was performed using ethyl acetate as an eluent. A microneedle patch having no drug was used as the control. 0.1% NR dissolved in 20% ethyl acetate and CAP dissolved in 40% ethanol were used in a topical formulation model. This model was most widely used for a formulation of a lipophilic compound in which an organic solvent was used to dissolve the lipophilic drug. 1 mL of such a topical formulation was dropped on the skin of a pig until the topical formulation was diffused to an area of approximately 2 cm^2.\nAlso, the size of CAP particles released during diffusion of the Franz cells in the skin of a dead pig (FIG. 4C) was measured. PBS solution samples were taken from the Franz cell receptor after 0, 6, 12, 24 hours of application of the CAP microneedles, and the particle sizes of the samples were measured through SEM image analysis."}, "IL-1β": {"tested_on": "IL-1β", "test": "Serum IL-1β by ELISA in CIA mice", "assay_type": "in vivo, DBA/1 mice", "conditions": "versus RA model"}, "[5]": {"conditions": "cited from earlier work"}, "[6]": {"conditions": "homogenized with CMC (10% by weight), 0.1% NR, 0.75% CAP"}, "[7]": {"conditions": "homogenized with HA (10% by weight), 0.1% NR, 0.75% CAP"}, "[8]": {"conditions": "homogenized with PVA (10% by weight), 0.1% NR, 0.75% CAP"}, "[9]": {"conditions": "homogenized with PVP (10% by weight), 0.1% NR, 0.75% CAP"}, "[10]": {"conditions": "homogenized, polymer composition: None"}, "[11]": {"conditions": "in HA and PVP (1:1) smart polymer system"}},
  "data": [
    {"smiles": "COc1cc(CNC(=O)CCCC/C=C/C(C)C)ccc1O", "note": "[CAP, capsaicin]", "values": [
      {"measurement": "size of commercially available crystalline drug", "setting": "[1]", "result": "4.845±3", "unit": "μm"},
      {"measurement": "particle size", "setting": "[1]; [6]", "result": "43.856 ± 3", "unit": "μm"},
      {"measurement": "particle size", "setting": "[1]; [7]", "result": "9.736 ± 2", "unit": "μm"},
      {"measurement": "particle size", "setting": "[1]; [8]", "result": "2.676 ± 7", "unit": "μm"},
      {"measurement": "particle size", "setting": "[1]; [9]", "result": "1.432 ± 3", "unit": "μm"},
      {"measurement": "particle size", "setting": "[1]; [10]", "result": "0.986±6", "unit": "μm"},
      {"measurement": "particle size", "setting": "[1]; [11]", "result": "167.4±4", "unit": "nm"},
      {"measurement": "circular colloidal particle size (SEM)", "setting": "[2]", "result": "approximately 155±8 nm"},
      {"measurement": "colloidal structure particle size (TEM)", "setting": "[3]", "result": "154±3", "unit": "nm"},
      {"measurement": "release of drug from SPS microneedles", "setting": "[4]; 0.75% CAP microneedles, after 12 hours of application", "result": 86, "unit": "%"},
      {"measurement": "time to diffusion after application", "setting": "[4]", "result": "within an hour"},
      {"measurement": "decrease of serum IL-1β level", "setting": "IL-1β", "result": "approximately 50%"}
    ]},
    {"smiles": "CCN(CC)c1ccc2nc3c4ccccc4c(=O)cc-3oc2c1", "note": "[NR, Nile Red]", "values": [
      {"measurement": "size of commercially available crystalline drug", "setting": "[1]", "result": "6.723±5", "unit": "μm"},
      {"measurement": "particle size", "setting": "[1]; [6]", "result": "67.733 ± 8", "unit": "μm"},
      {"measurement": "particle size", "setting": "[1]; [7]", "result": "11.083 ± 4", "unit": "μm"},
      {"measurement": "particle size", "setting": "[1]; [8]", "result": "4.243 ± 8", "unit": "μm"},
      {"measurement": "particle size", "setting": "[1]; [9]", "result": "1.564 ± 3", "unit": "μm"},
      {"measurement": "particle size", "setting": "[1]; [10]", "result": "1.797±7", "unit": "μm"},
      {"measurement": "particle size", "setting": "[1]; [11]", "result": "157.4±6", "unit": "nm"},
      {"measurement": "circular colloidal particle size (SEM)", "setting": "[2]", "result": "approximately 168±12 nm"},
      {"measurement": "colloidal structure particle size (TEM)", "setting": "[3]", "result": "161±32", "unit": "nm"},
      {"measurement": "release of drug from SPS microneedles", "setting": "[4]; 0.1% NR microneedles, after 8 hours of application", "result": 74, "unit": "%"},
      {"measurement": "time to diffusion after application", "setting": "[4]", "result": "≤ 30", "unit": "min"},
      {"measurement": "log P", "setting": "[5]", "result": 5}
    ]}
  ]
}
